Source: publication PMC3961306, “Comparison of the Cancer Gene Targeting and Biochemical Selectivities of All Targeted Kinase Inhibitors Approved for Clinical Use” (PLoS ONE, 2014)

Experiments:
Test in all cases: Kinase profiling in a biochemical assay panel (mobility shift assays and ELISA), %-inhibition at 1 μM; selectivity entropy
[1] = target: panel of more than 300 wild-type and mutant kinases (313 kinase panel) (Homo sapiens, UniProt Q9HCP0); conditions: kinase CK1γ1; 1 μM compound
[2] = target: panel of more than 300 wild-type and mutant kinases (313 kinase panel) (Homo sapiens, UniProt O95819); conditions: kinase HGK; compound at 1 μM
[3] = target: T1, panel of more than 300 wild-type and mutant kinases (313 kinase panel) (Homo sapiens, UniProt P29323); conditions: kinase EPHB2; compound at 1 μM
T1 sequence (P29323 19-1055): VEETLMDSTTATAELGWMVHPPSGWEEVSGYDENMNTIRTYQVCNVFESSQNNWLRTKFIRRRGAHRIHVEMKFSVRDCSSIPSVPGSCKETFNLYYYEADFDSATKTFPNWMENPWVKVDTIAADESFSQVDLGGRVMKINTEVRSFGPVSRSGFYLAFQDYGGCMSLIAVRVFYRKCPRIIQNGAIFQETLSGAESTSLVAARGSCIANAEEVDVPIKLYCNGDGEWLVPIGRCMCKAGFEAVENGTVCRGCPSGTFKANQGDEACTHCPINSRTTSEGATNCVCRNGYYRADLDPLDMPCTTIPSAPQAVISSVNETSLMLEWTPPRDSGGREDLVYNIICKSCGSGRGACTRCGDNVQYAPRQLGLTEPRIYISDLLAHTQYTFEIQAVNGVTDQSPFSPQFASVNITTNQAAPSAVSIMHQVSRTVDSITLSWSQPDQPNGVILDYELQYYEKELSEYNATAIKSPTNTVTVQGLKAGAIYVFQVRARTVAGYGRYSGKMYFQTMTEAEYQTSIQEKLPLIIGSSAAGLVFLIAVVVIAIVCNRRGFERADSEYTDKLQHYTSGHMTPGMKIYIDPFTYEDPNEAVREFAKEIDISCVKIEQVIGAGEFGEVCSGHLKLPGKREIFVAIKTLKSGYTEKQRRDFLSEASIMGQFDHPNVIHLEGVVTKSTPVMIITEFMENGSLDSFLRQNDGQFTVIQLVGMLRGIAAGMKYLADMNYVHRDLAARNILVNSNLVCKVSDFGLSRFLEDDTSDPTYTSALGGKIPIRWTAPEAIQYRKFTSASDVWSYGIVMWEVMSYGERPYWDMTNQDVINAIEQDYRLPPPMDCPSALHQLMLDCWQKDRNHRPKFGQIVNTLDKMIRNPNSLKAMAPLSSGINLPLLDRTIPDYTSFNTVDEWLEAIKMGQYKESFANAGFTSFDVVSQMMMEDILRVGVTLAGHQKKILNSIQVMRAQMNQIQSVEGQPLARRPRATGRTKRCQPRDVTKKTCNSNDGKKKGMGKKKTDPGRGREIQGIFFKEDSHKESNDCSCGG

[4] = target: panel of more than 300 wild-type and mutant kinases (313 kinase panel) (Homo sapiens, UniProt Q05655); conditions: kinase PKCδ; 1 μM
[5] = target: panel of more than 300 wild-type and mutant kinases (313 kinase panel) (Homo sapiens, UniProt Q9P289)
[6] = target: panel of more than 300 wild-type and mutant kinases (313 kinase panel) (Homo sapiens, UniProt P51957); conditions: kinase NEK4; 1 μM
[7] = target: panel of more than 300 wild-type and mutant kinases (313 kinase panel) (Homo sapiens, UniProt Q9Y463); conditions: kinase DYRK1B; compound at 1 μM
[8] = target: T2, panel of more than 300 wild-type and mutant kinases (313 kinase panel) (Homo sapiens, UniProt P52564); conditions: kinase MAP2K6; compound at 1 μM
T2 sequence (P52564 1-334): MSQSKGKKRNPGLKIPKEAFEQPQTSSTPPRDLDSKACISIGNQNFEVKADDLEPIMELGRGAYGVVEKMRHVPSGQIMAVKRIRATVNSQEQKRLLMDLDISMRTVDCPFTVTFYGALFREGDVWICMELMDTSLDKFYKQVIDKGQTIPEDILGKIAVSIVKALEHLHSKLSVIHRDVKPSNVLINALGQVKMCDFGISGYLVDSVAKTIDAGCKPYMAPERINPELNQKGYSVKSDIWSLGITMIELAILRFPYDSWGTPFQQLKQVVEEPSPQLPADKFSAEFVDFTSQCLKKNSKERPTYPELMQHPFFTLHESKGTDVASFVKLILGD

[9] = target: panel of more than 300 wild-type and mutant kinases (313 kinase panel) (Homo sapiens, UniProt P78362); conditions: kinase SRPK2; 1 μM
[10] = target: panel of more than 300 wild-type and mutant kinases (313 kinase panel) (Homo sapiens, UniProt P24941); conditions: 1 μM compound; for %-inhibition, CDK2/CycA2: kinase CDK2/CycA2; for %-inhibition, CDK2/CycE1: kinase CDK2/CycE1
[11] = target: panel of more than 300 wild-type and mutant kinases (313 kinase panel) (Homo sapiens, UniProt P27448); conditions: kinase MARK3; compound at 1 μM
Chain of panel of more than 300 wild-type and mutant kinases (313 kinase panel) (Homo sapiens, UniProt P27448) (P27448 whole entry, change not shown): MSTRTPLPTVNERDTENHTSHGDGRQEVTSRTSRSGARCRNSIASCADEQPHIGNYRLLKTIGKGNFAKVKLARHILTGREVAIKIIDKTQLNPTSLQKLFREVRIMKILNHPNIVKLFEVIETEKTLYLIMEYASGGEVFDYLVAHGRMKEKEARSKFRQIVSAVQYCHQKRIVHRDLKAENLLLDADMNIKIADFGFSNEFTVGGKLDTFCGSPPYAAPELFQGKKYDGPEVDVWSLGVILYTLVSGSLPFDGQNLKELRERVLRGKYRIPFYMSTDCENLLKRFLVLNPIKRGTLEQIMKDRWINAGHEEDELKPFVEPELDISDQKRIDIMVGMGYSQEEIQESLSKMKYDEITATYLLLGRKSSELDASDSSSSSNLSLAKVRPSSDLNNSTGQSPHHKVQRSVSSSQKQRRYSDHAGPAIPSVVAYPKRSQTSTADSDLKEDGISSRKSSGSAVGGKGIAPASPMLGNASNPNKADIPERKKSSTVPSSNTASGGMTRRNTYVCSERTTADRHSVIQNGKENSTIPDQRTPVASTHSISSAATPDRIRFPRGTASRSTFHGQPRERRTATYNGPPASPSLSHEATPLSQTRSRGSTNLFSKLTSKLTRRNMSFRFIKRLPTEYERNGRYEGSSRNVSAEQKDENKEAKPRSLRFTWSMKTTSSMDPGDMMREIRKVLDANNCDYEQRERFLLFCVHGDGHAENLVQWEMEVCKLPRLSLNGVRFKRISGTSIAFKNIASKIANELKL

Chain of panel of more than 300 wild-type and mutant kinases (313 kinase panel) (Homo sapiens, UniProt Q9Y463) (Q9Y463 whole entry, change not shown): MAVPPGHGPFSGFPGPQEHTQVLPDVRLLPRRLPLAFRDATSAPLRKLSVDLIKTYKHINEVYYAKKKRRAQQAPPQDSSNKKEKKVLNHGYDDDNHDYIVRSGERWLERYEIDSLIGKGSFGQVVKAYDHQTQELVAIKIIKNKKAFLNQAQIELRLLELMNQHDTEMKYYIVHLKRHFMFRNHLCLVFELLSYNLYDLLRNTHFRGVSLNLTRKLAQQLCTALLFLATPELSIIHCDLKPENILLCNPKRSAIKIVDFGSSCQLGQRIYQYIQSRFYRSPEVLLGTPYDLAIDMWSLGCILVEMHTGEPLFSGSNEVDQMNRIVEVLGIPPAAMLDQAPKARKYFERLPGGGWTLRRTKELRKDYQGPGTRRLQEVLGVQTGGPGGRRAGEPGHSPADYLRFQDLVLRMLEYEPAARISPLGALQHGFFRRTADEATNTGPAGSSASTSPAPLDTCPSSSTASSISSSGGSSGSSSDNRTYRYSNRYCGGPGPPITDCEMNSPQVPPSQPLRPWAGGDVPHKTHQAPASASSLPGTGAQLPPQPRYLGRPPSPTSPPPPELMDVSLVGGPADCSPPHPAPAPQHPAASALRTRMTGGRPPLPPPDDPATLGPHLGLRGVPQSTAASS
Chain of panel of more than 300 wild-type and mutant kinases (313 kinase panel) (Homo sapiens, UniProt Q9P289) (Q9P289 whole entry, change not shown): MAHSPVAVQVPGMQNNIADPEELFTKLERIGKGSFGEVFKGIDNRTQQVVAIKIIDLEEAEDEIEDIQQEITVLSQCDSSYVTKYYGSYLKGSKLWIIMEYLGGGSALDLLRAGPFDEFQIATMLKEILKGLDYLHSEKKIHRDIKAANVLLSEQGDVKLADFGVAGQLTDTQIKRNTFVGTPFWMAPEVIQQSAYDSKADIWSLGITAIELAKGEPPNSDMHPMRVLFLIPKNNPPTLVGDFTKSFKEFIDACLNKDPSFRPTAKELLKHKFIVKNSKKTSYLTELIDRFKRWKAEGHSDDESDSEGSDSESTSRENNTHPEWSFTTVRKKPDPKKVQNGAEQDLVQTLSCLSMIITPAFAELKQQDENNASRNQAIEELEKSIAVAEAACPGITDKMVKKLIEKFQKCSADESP
Chain of panel of more than 300 wild-type and mutant kinases (313 kinase panel) (Homo sapiens, UniProt P51957) (P51957 whole entry, change not shown): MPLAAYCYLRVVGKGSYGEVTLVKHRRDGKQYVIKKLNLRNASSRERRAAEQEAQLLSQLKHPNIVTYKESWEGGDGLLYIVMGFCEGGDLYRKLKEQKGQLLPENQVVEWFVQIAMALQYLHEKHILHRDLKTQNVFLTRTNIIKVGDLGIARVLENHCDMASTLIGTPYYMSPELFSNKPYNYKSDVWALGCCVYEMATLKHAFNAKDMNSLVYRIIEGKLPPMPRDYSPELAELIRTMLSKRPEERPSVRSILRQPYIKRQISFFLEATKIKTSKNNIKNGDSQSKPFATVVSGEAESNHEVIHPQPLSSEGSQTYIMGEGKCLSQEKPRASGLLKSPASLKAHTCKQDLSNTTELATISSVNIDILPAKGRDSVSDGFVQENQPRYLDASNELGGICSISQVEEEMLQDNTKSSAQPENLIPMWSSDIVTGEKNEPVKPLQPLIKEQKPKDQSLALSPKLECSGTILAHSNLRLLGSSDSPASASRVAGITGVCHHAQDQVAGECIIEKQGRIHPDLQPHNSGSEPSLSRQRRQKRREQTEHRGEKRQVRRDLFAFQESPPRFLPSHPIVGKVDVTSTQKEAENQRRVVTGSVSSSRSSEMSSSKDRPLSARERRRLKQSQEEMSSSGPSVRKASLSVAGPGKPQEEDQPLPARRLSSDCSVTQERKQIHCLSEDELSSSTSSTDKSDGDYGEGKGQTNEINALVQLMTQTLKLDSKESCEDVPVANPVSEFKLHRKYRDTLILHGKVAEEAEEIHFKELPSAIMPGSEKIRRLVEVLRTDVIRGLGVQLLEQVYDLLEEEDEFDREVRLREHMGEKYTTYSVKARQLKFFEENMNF

Q: What does the source list for `Cc1ccc(Nc2nccc(N(C)c3ccc4c(C)n(C)nc4c3)n2)cc1S(N)(=O)=O` [pazopanib]?
A: %-inhibition, CK1γ1 [1]: -3%; %-inhibition of HGK [2]: 50%; %-inhibition of EPHB2 [3]: 16%; %-inhibition of PKCδ [4]: -3%; %-inhibition of MST4 ([5]; kinase MST4, 1 μM): -3.23%; %-inhibition of NEK4 [6]: 12%; %-inhibition of DYRK1B [7]: -3%; %-inhibition of MAP2K6 [8]: 78%; %-inhibition of SRPK2 [9]: -4%; %-inhibition, CDK2/CycA2 [10]: -5%; %-inhibition, CDK2/CycE1 [10]: -0.507%; %-inhibition of MARK3 [11]: 4.45%

Q: With `CNC(=O)c1cc(Oc2ccc(NC(=O)Nc3ccc(Cl)c(C(F)(F)F)c3)c(F)c2)ccn1` [regorafenib] as the compound, how does the “%-inhibition, CK1γ1” value [1] read?
A: Its value is -8%.

Q: And the “%-inhibition of HGK” value [2]?
A: The value was 53%.

Q: And the “%-inhibition of EPHB2” value [3]?
A: The value was 84%.

Q: And the “%-inhibition of PKCδ” value [4]?
A: The value was 2.2%.

Q: And the “%-inhibition of MST4” value ([5]; kinase MST4, 1 μM)?
A: Its value is 3.66%.

Q: What about the “%-inhibition of NEK4” value [6] of the same compound?
A: Its value is -4%.

Q: And the “%-inhibition of DYRK1B” value [7]?
A: The value was -7.4%.

Q: What about the “%-inhibition of MAP2K6” value [8] of the same compound?
A: Its value is 93%.

Q: What about the “%-inhibition of SRPK2” value [9] of the same compound?
A: The value was 5%.

Q: What about the “%-inhibition, CDK2/CycA2” value [10] of the same compound?
A: The value was -12%.

Q: And the “%-inhibition, CDK2/CycE1” value [10]?
A: Its value is -2.7%.

Q: What about the “%-inhibition of MARK3” value [11] of the same compound?
A: The value was -3.48%.

Q: Which results are given for `CO[C@H]1C[C@@H]2CC[C@@H](C)[C@@](O)(O2)C(=O)C(=O)N2CCCC[C@H]2C(=O)O[C@H]([C@H](C)C[C@@H]2CC[C@@H](OC(=O)C(C)(CO)CO)[C@H](OC)C2)CC(=O)[C@H](C)/C=C(\C)[C@@H](O)[C@@H](OC)C(=O)[C@H](C)C[C@H](C)/C=C/C=C/C=C/1C` [temsirolimus]?
A: %-inhibition, CK1γ1 [1]: -4.47%; %-inhibition of HGK [2]: -0.299%; %-inhibition of EPHB2 [3]: -5.66%; %-inhibition of PKCδ [4]: -4%; %-inhibition of MST4 ([5]; kinase MST4, 1 μM): -3.42%; %-inhibition of NEK4 [6]: 0.416%; %-inhibition of DYRK1B [7]: -11%; %-inhibition of MAP2K6 [8]: 15%; %-inhibition of SRPK2 [9]: -3.79%; %-inhibition, CDK2/CycA2 [10]: -8%; %-inhibition, CDK2/CycE1 [10]: -1.35%; %-inhibition of MARK3 [11]: -0.859%

Q: With `CC(=O)Nc1cccc(-n2c(=O)n(C3CC3)c(=O)c3c(Nc4ccc(I)cc4F)n(C)c(=O)c(C)c32)c1` [trametinib] as the compound, how does the “%-inhibition, CK1γ1” value [1] read?
A: Its value is 0.211%.

Q: What about the “%-inhibition of HGK” value [2] of the same compound?
A: The value was -3.71%.

Q: And the “%-inhibition of EPHB2” value [3]?
A: Its value is -8%.

Q: And the “%-inhibition of PKCδ” value [4]?
A: The value was -4.75%.

Q: What about the “%-inhibition of MST4” value ([5]; kinase MST4, 1 μM) of the same compound?
A: The value was -2.23%.

Q: And the “%-inhibition of NEK4” value [6]?
A: The value was 2%.

Q: What about the “%-inhibition of DYRK1B” value [7] of the same compound?
A: The value was 3.34%.

Q: What about the “%-inhibition of MAP2K6” value [8] of the same compound?
A: The value was -21%.

Q: What about the “%-inhibition of SRPK2” value [9] of the same compound?
A: The value was -0.868%.

Q: What about the “%-inhibition, CDK2/CycA2” value [10] of the same compound?
A: Its value is 24%.

Q: What about the “%-inhibition, CDK2/CycE1” value [10] of the same compound?
A: The value was 2.59%.

Q: And the “%-inhibition of MARK3” value [11]?
A: Its value is -3.21%.

Q: For `COc1cc2c(Nc3ccc(Br)cc3F)ncnc2cc1OCC1CCN(C)CC1` [vandetanib], which “%-inhibition, CK1γ1” value [1] is on record?
A: Its value is -4.74%.

Q: And the “%-inhibition of HGK” value [2]?
A: Its value is 69%.

Q: And the “%-inhibition of EPHB2” value [3]?
A: The value was 96%.

Q: And the “%-inhibition of PKCδ” value [4]?
A: Its value is -5.39%.

Q: What about the “%-inhibition of MST4” value ([5]; kinase MST4, 1 μM) of the same compound?
A: Its value is -2.22%.

Q: What about the “%-inhibition of NEK4” value [6] of the same compound?
A: Its value is -6.51%.

Q: What about the “%-inhibition of DYRK1B” value [7] of the same compound?
A: Its value is -2.71%.

Q: And the “%-inhibition of MAP2K6” value [8]?
A: The value was 18%.

Q: And the “%-inhibition of SRPK2” value [9]?
A: The value was -9%.

Q: And the “%-inhibition, CDK2/CycA2” value [10]?
A: Its value is -8%.

Q: What about the “%-inhibition, CDK2/CycE1” value [10] of the same compound?
A: The value was -21%.

Q: What about the “%-inhibition of MARK3” value [11] of the same compound?
A: Its value is 4%.

Q: How did the “%-inhibition, CK1γ1” value [1] turn out when `CCCS(=O)(=O)Nc1ccc(F)c(C(=O)c2c[nH]c3ncc(-c4ccc(Cl)cc4)cc23)c1F` [vemurafenib] was run?
A: Its value is -2%.

Q: What about the “%-inhibition of HGK” value [2] of the same compound?
A: Its value is 26%.

Q: And the “%-inhibition of EPHB2” value [3]?
A: Its value is -2.11%.

Q: And the “%-inhibition of PKCδ” value [4]?
A: Its value is -5%.

Q: And the “%-inhibition of MST4” value ([5]; 1 µM)?
A: Its value is -4.62%.

Q: And the “%-inhibition of NEK4” value [6]?
A: The value was -0.416%.

Q: And the “%-inhibition of DYRK1B” value [7]?
A: Its value is -1.74%.

Q: And the “%-inhibition of MAP2K6” value [8]?
A: The value was 31%.

Q: What about the “%-inhibition of SRPK2” value [9] of the same compound?
A: Its value is -2.2%.

Q: What about the “%-inhibition, CDK2/CycA2” value [10] of the same compound?
A: Its value is -3%.

Q: And the “%-inhibition, CDK2/CycE1” value [10]?
A: The value was -5%.

Q: And the “%-inhibition of MARK3” value [11]?
A: Its value is -0.226%.
